Results as given in patent US20200003760A1, “IN-VITRO METHODS FOR CLASSIFYING DRUGS ACCORDING TO THEIR POTENTIAL TO CAUSE LIVER CELL INJURY” (Board of Trustees of Michigan State University, priority 2018, published 2020).
Like-named read-outs stand apart in the source and are kept apart here.

Legend:
HepG2 cells [1] = assay: Drug/cytokine-induced cytotoxicity (% LDH release) concentration-response in HepG2 cells; type: cell-based, human; set-up: key to Deltadiff: LDH release percentage points (drug/TNF Delta minus drug/VEH Delta); settings: for R10 / R10 IFN / R10 TNF / R10 TNF/IFN: 10 percent increase in LDH response above min, 0 when D10 = 0; for R10 / Emax: drug alone (VEH); for R10 IFN: with IFN; for R10 TNF: with TNF; for Deltadiff: Delta of drug/TNF curve minus Delta of drug/VEH curve (LDH percentage); for Emax: Homo sapiens, HepG2; for TNF change: D10TNF − D10VEH
Outline: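 Cells at passage 6-16 were treated for 24 hours with drug or vehicle (water or DMSO <0.5%), alone or with TNF (10 ng/ml) and/or IFN (10 ng/ml), after overnight attachment. Cytotoxicity was scored as LDH released into medium; concentrations were expressed as [drug]/Cmax, with four-parameter logistic fits giving EC50, EC10 and R10 (+10 LDH points over baseline).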

[2] = Logistic regression classification model: probability that a drug is associated with IDILI; set-up: species or system human; settings: probability that drug is associated with IDILI; covariates Deltadiff, EC50 VEH, EC50 TNF, Delta VEH, Cmax; optimal cutoff 0.46
Source text: Classification modeling using defined covariates. In the second phase of analysis, classification models were developed using logistic regression with covariates as independent variables in the analysis and known IDILI classification as the dependent variable. A model selection process was used to determine if a covariate or set of covariates is associated with IDILI liability. Covariates were first evaluated individually to determine how well a particular covariate classified drugs according to IDILI liability, and then covariates were evaluated in combination. Combinations of covariates were selected to maximize the ability of the model to distinguish between drugs associated or not with IDILI. Specifically, covariates that describe changes in efficacy (Delta, Deltadiff, etc.) were paired with covariates that describe changes in potency (EC50, EC10, R10, etc.) to find covariate combinations that led to models that most accurately discriminated between drugs that are and are not associated with IDILI. […] The logistic regression models follow the equation: […]
where ŷi is the calculated (predicted) probability that drug i with a vector of covariates xi is associated with IDILI. The β coefficients (β0, the regression intercept; and βi, the regression slopes for model covariates, xi) were derived from the logistic regression models using 1) combinations of the covariates (xi) generated by concentration-response modeling for each of the 24 drugs evaluated in this study, and 2) the true IDILI classification for the dependent variable yi (i.e., 1 for IDILI+drugs and 0 for IDILI-drugs). […] This occurs when a covariate almost perfectly separates observations into the appropriate categories. […] When separation or quasi-complete separation occurs, use of the standard method (i.e., maximum likelihood estimation) provides biased, unreliable estimates of βi.
Receiver operating characteristic (ROC) analysis. In the third phase of the statistical approach, the classification models, generated as logistic regression models using single covariates or combinations of covariates, were evaluated by ROC analysis to determine which model and corresponding sets of covariates led to the most accurate classification of drugs according to their potential to cause IDILI. An ROC curve was created for each model by graphing the true positive rate (sensitivity; i.e., proportion of drugs correctly classified as associated with IDILI) against the false positive rate (1-specificity; i.e., proportion of drugs incorrectly classified as associated with IDILI) at various probability cutoff thresholds (k). […] An area under the curve (AUC) and confidence interval was computed for each ROC curve (where each logistic regression model has one ROC curve). […] Corresponding to each ROC curve is an optimal threshold value (k*), the threshold yielding the highest point of accuracy on the curve (i.e., the point nearest the point […] on the curve). Thus, each ROC curve has a corresponding AUC and an optimal cutoff (k*) that corresponds to the highest point of accuracy on that ROC curve.

[3] = maximal plasma concentration after pharmacologic dosing in human patients; cited from earlier work
[4] = cited from earlier work; for True classification: IDILI in human patients; for IDILI liability: criteria of Xu et al. (2008)
HepG2 cells [5] = assay: Point of departure (POD) from censored concentration-response relationships in HepG2 cells; type: cell-based, human; settings: censored CRRs, 4-parameter log-logistic model
Source text: Partial, or censored, CRRs were then created using concentrations at or below the EC50. Nine CRC models were fit to the partial CRRs for all 24 drugs and compared to identify the best-fitting CRC model overall. Models were compared using Akaike Information Criteria (AIC; Akaike 1973, Burnham & Anderson 2002). The 4-parameter log-logistic model was selected to model censored CRRs for each of the 24 drugs since it provided the best fit (lowest AIC) for the majority of drugs. […] PODs provided a robust measure to characterize each of the CRCs using the low-concentration regions of the CRRs. In addition to POD.DRUG and POD.DRUG+TNF, POD.DIFF (i.e., POD.DRUG−POD.DRUG+TNF) and POD.RATIO (i.e., POD.DRUG/POD.DRUG+TNF) were used as covariates in the logistic regression model developed to classify the drugs according to their IDILI status. […] The horizontal blue line illustrates the mean control value estimated by pooling LDH % responses at the zero concentrations for both CRRs above. The horizontal dashed red line illustrates an upper limit of the pooled control data as the control mean plus 2 control standard deviations. PODs were then calculated for each curve as the effective concentration corresponding to the upper limit of the pooled control data, shown as vertical dashed red lines.

[6] = categorical, Delta threshold 10 LDH percentage points, read-out: D10
[7] = maximal LDH response, 24 h, read-out: max

| Estimated probability [2] | SMILES | R10 (HepG2 cells [1]) | R10 IFN (HepG2 cells [1]) | R10 TNF (HepG2 cells [1]) | R10 TNF/IFN (HepG2 cells [1]; with TNF and IFN) | Deltadiff (HepG2 cells [1]) | Emax (HepG2 cells [1]; [6]) | Emax (HepG2 cells [1]; [7]) | TNF change (HepG2 cells [1]; categorical) | Cmax [3] | True classification [4] | IDILI liability [4] | cytotoxic interaction of drug with TNF (HepG2 cells [1]; HepG2, 24 h, TNF 10 ng/ml) | effect of IFN coexposure on the drug/TNF cytotoxic interaction (HepG2 cells [1]; HepG2, 24 h, TNF and IFN 10 ng/ml each) | cytotoxicity of drug on its own (LDH release) (HepG2 cells [1]; HepG2, 24 h, absence of cytokines) | EC10 TNF (HepG2 cells [1]; value corresponding to 10% of Delta, with TNF 10 ng/ml, NA = no significant increase) | EC10 TNF/IFN (HepG2 cells [1]; value corresponding to 10% of Delta, with TNF and IFN, NA = no significant increase) | POD.DRUG versus POD.DRUG+TNF (HepG2 cells [5]) |
| --- | --- | --- | --- | --- | --- | --- | --- | --- | --- | --- | --- | --- | --- | --- | --- | --- | --- | --- |
| 0.1278 | CS(=O)(=O)c1ccc(C2=C(c3ccccc3)C(=O)OC2)cc1 [Rofecoxib] | 0 [drug]/Cmax | 0 [drug]/Cmax | 0 [drug]/Cmax | 0 [drug]/Cmax | 0 | < 10% | 12.2% | 0 | 1000 nM | IDILI− | IDILI− |  |  |  |  |  |  |
| 0.1275 | CN[C@H]1CC[C@@H](c2ccc(Cl)c(Cl)c2)c2ccccc21 [Sertraline] | 0 [drug]/Cmax | 0 [drug]/Cmax | 0 [drug]/Cmax | 0 [drug]/Cmax | 0 | < 10% | 14% | 0 | 60 nM | IDILI− | IDILI− |  |  |  |  |  |  |
|  | N[C@@H]1[C@H]2CN(c3nc4c(cc3F)c(=O)c(C(=O)O)cn4-c3ccc(F)cc3F)C[C@@H]12 [Trovafloxacin] | 0 [drug]/Cmax | 0 [drug]/Cmax | 4.8 [drug]/Cmax | 1.2 [drug]/Cmax | 27.4 | < 10% | 18.7% | 1 | 5000 nM |  |  | TNF significantly enhanced the cytotoxicity | coexposure to IFN enhanced the cytotoxic interaction | statistically significant increase in LDH release | 2.3 [drug]/Cmax | 0.5 [drug]/Cmax | POD.DRUG occurs at a relatively higher concentration than POD.DRUG+TNF |
